The record followed here is patent publication US20090099158A1, “TETRAHYDROISOQUINOLINE COMPOUNDS AS MODULATORS OF THE HISTAMINE H3 RECEPTOR” (priority 2007, published 2009).

By Ki is commonly meant a measure of affinity in units of concentration, obtained from inhibition or displacement. Read a low Ki as higher affinity.

This assay deals with T1, cloned human H3 receptors (Homo sapiens, UniProt Q9Y5N1).
T1 construct: expressed in transfected cells; host or cells: SK-N-MC cells
T1 sequence (Q9Y5N1 whole entry): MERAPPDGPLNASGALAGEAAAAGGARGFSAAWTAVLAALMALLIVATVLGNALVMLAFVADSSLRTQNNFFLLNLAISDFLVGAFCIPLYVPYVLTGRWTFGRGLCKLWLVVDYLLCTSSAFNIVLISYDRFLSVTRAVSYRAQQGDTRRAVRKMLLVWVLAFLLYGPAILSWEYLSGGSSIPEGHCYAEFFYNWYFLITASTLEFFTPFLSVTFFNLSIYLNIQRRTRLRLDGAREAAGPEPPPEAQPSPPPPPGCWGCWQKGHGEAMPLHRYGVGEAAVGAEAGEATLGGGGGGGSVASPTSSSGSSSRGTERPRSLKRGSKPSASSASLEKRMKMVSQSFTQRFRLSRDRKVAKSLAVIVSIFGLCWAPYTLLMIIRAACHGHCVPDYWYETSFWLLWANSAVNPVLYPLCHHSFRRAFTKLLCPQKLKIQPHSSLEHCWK
In words: H3 Receptor Binding (Human). Conditions: cloned human H3 receptors stably expressed in SK-N-MC cells; average of the results obtained. As for the experimental part:
Binding of compounds to the cloned human H3 receptors, stably expressed in SK-N-MC cells, was performed as described by Barbier, A. J. et al. (Br. J. Pharmacol. 2004, 143(5), 649-661). Data for compounds tested in this assay are presented in Table 1 as an average of the results obtained.
`CCCN1CCc2cc(C(=O)N3CCCN(C4CCC4)CC3)ccc2C1` [Example 183, (4-Cyclobutyl-[1,4]diazepan-1-yl)-(2-propyl-1,2,3,4-tetrahydro-isoquinolin-6-yl)-methanone] came in with a Ki of 1 nM.

For the compound `O=C(C1CCCCC1)N1CCc2cc(C(=O)N3CCC[C@H]3CN3CCCC3)ccc2C1` [Example 150, (S)-Cyclohexyl-[6-(2-Pyrrolidin-1-ylmethyl-pyrrolidine-1-carbonyl)-3,4-dihydro-1H-isoquinolin-2-yl]-methanone], affinity was put at a Ki of 9 nM.

The compound `O=C(Cc1ccc(F)cc1)N1CCc2cc(C(=O)N3CCN(C4CCCC4)CC3)ccc2C1` [Example 71, 1-[6-(4-Cyclopentyl-piperazine-1-carbonyl)-3,4-dihydro-1H-isoquinolin-2-yl]-2-(4-fluoro-phenyl)-ethanone] came in with a Ki of 48 nM. Consider `O=C(c1ccc2c(c1)CCN(C(=O)c1ccccc1Cl)C2)N1CCN(C2CCCC2)CC1` [Example 68, [2-(2-Chloro-benzoyl)-1,2,3,4-tetrahydro-isoquinolin-6-yl]-(4-cyclopentyl-piperazin-1-yl)-methanone], for which the affinity, expressed as Ki, was 32 nM.

As for `Cc1ccc(C(=O)N2CCc3cc(C(=O)N4CCN(C5CCCC5)CC4)ccc3C2)cc1` [Example 70, (4-Cyclopentyl-piperazin-1-yl)-[2-(4-methyl-benzoyl)-1,2,3,4-tetrahydro-isoquinolin-6-yl]-methanone], the Ki came out at 65 nM. With `Cc1ccc(C(=O)N2CCc3cc(C(=O)N4CCC[C@H]4CN4CCCC4)ccc3C2)cc1` [Example 55, (S)-[6-(2-Pyrrolidin-1-ylmethyl-pyrrolidine-1-carbonyl)-3,4-dihydro-1H-isoquinolin-2-yl]-p-tolyl-methanone] the figure was 22 nM; with `CCCS(=O)(=O)N1CCc2cc(C(=O)N3CCN(C4CCC4)CC3)ccc2C1` [Example 101, (4-Cyclobutyl-piperazin-1-yl)-[2-(propane-1-sulfonyl)-1,2,3,4-tetrahydro-isoquinolin-6-yl]-methanone], 34 nM; with `CC(=O)N1CCc2cc(C(=O)N3CCN(C4CCC4)CC3)ccc2C1` [Example 30, 1-[6-(4-Cyclobutyl-piperazine-1-carbonyl)-3,4-dihydro-1H-isoquinolin-2-yl]-ethanone], 36 nM. As for `CC(C)(C)C1CCN(C(=O)c2ccc3c(c2)CCN(C2CCCC2)C3)CC1` [Example 193, (4-tert-Butyl-piperidin-1-yl)-(2-cyclopentyl-1,2,3,4-tetrahydro-isoquinolin-6-yl)-methanone], the affinity corresponds to a Ki of 240 nM.

`O=C(c1ccc2c(c1)CCN(Cc1ccc(Cl)cc1)C2)N1CCN(C2CCC2)CC1` [Example 17, [2-(4-Chloro-benzyl)-1,2,3,4-tetrahydro-isoquinolin-6-yl]-(4-cyclobutyl-piperazin-1-yl)-methanone]: the inhibition constant (Ki) was determined as 15 nM. Regarding `Cc1ccc(C(=O)N2CCc3cc(C(=O)N4CCN5CCCCC5C4)ccc3C2)cc1` (stereo not drawn) [Example 97, [2-(4-Methyl-benzoyl)-1,2,3,4-tetrahydro-isoquinolin-6-yl]-(octahydro-pyrido[1,2-a]pyrazin-2-yl)-methanone], the Ki is 38 nM. As to `CC(C)N1CCN(C(=O)c2ccc3c(c2)CCN(C(=O)c2ccc(Cl)c(Cl)c2)C3)CC1` [Example 111, [2-(3,4-Dichloro-benzoyl)-1,2,3,4-tetrahydro-isoquinolin-6-yl]-(4-isopropyl-piperazin-1-yl)-methanone], the affinity, expressed as Ki, was 24 nM. Regarding `O=C(c1ccc2c(c1)CCN(C(=O)c1ccc(Cl)cc1)C2)N1CCN(C2CCCC2)CC1` [Example 69, [2-(4-Chloro-benzoyl)-1,2,3,4-tetrahydro-isoquinolin-6-yl]-(4-cyclopentyl-piperazin-1-yl)-methanone], the affinity corresponds to a Ki of 91 nM. `CC(C)(C)C1CCN(C(=O)c2ccc3c(c2)CCN(C2CCC2)C3)CC1` [Example 188, (4-tert-Butyl-piperidin-1-yl)-(2-cyclobutyl-1,2,3,4-tetrahydro-isoquinolin-6-yl)-methanone] gave a Ki of 340 nM. `O=C(c1ccc2c(c1)CCNC2)N1CCOCC1` [Example 7, Morpholin-4-yl-(1,2,3,4-tetrahydro-isoquinolin-6-yl)-methanone]: the Ki was 4000 nM.

With `CC(C)N1CCN(C(=O)c2ccc3c(c2)CCN(Cc2ccc(Cl)c(Cl)c2)C3)CC1` [Example 19, [2-(3,4-Dichloro-benzyl)-1,2,3,4-tetrahydro-isoquinolin-6-yl]-(4-isopropyl-piperazin-1-yl)-methanone], the affinity, expressed as Ki, was 29 nM.

In the case of `CC(C)N1CCN(C(=O)c2ccc3c(c2)CCN(C(=O)c2ccsc2)C3)CC1` [Example 106, (4-Isopropyl-piperazin-1-yl)-[2-(thiophene-3-carbonyl)-1,2,34-tetrahydro-isoquinolin-6-yl]-methanone], the Ki came out at 17 nM. Compound `CO[C@H]1CC[C@@H](C(=O)N2CCc3cc(C(=O)N4CCCN(C5CCC5)CC4)ccc3C2)CC1` [Example 148, cis-[6-(4-Cyclobutyl-[1,4]diazepane-1-carbonyl)-3,4-dihydro-1H-isoquinolin-2-yl]-(4-methoxy-cyclohexyl)-methanone] gave a Ki of 1 nM. Consider `O=C(C1CCCCC1)N1CCc2cc(CN3CCN(C4CCC4)CC3)ccc2C1` [Example 170, [6-(4-Cyclobutyl-piperazin-1-ylmethyl)-3,4-dihydro-1H-isoquinolin-2-yl]-cyclohexyl-methanone], for which affinity was put at a Ki of 860 nM. Then `O=C(c1ccc2c(c1)CCN(C(=O)C1CC1)C2)N1CCN(C2CCC2)CC1` [Example 34, [6-(4-Cyclobutyl-piperazine-1-carbonyl)-3,4-dihydro-1H-isoquinolin-2-yl]-cyclopropyl-methanone], with 14 nM; and `O=C(c1ccc2c(c1)CCN(Cc1ccc(Cl)c(Cl)c1)C2)N1CCN(C2CCC2)CC1` [Example 16, (4-Cyclobutyl-piperazin-1-yl)-[2-(3,4-dichloro-benzyl)-1,2,3,4-tetrahydro-isoquinolin-6-yl]-methanone], with 18 nM; and `O=C(c1ccc2c(c1)CCN(Cc1ccccc1)C2)N1CCCCC1` [Example 12, (2-Benzyl-1,2,3,4-tetrahydro-isoquinolin-6-yl)-piperidin-1-yl-methanone], with 7000 nM. On to `O=C(c1ccccc1Cl)N1CCc2cc(C(=O)N3CCC[C@H]3CN3CCCC3)ccc2C1` [Example 50, (S)-(2-Chloro-phenyl)-[6-(2-pyrrolidin-1-ylmethyl-pyrrolidine-1-carbonyl)-3,4-dihydro-1H-isoquinolin-2-yl]-methanone], for which the Ki was determined as 12 nM. For the compound `O=C(c1ccc(F)cc1)N1CCc2cc(C(=O)N3CCC[C@H]3CN3CCCC3)ccc2C1` [Example 58, (S)-(4-Fluoro-phenyl)-[6-(2-pyrrolidin-1-ylmethyl-pyrrolidine-1-carbonyl)-3,4-dihydro-1H-isoquinolin-2-yl]-methanone], the Ki worked out at 17 nM.
